{"source": "paper PMC10646256", "about": "“Scutellarin Rescued Mitochondrial Damage through Ameliorating Mitochondrial Glucose Oxidation via the Pdk‐Pdc Axis” (Advanced Science, 2023)", "biological_target": "pyruvate dehydrogenase kinase 2 (PDK2) (Homo sapiens, UniProt Q15119)", "test": "mobility shift kinase assay with purified GST-PDK2; supported by DARTS, CETSA, co-IP-MS and LiP-MS", "format": "biochemical", "data": [{"smiles": "O=C(O)[C@H]1O[C@@H](Oc2cc3oc(-c4ccc(O)cc4)cc(=O)c3c(O)c2O)[C@H](O)[C@@H](O)[C@@H]1O", "note": "[SG, Scutellarin]", "values": [{"measurement": "mobility shift kinase assay with purified GST-PDK2; supported by DARTS, CETSA, c", "value": "SG had significantly higher inhibitory activity against PDK2 than DCA at multiple concentrations"}]}]}
